Laboratory results from patent US20240140931A1, “TRICYCLIC COMPOUNDS AND USES THEREOF” (HUTCHMED LIMITED, priority 2021, published 2024).

What was measured:
[1] = target: Human full-length SHP2 recombinant protein (Homo sapiens (Human), UniProt Q06124); assay: Assay of full-length SHP2 phosphatase activity; type: biochemical; conditions: DiFMUP substrate, with activating peptide
Procedure, shortened: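 Readout: DiFMUP hydrolysis fluorescence (355/460 nm) after 60 min at 25 °C, following 30 min RT preincubation of compound with peptide-activated full-length human SHP2. Controls were 1% DMSO with or without enzyme; IC50 by four-parameter logistic fit.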

[2] = system: pERK1/2 (Thr202/Tyr204) in Miapaca2 cells; assay: Assay of intracellular pERK1/2 (Thr202/Tyr204) phosphorylation; type: cell-based; conditions: pERK1/2 (Thr202/Tyr204) HTRF
Procedure, shortened: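 HTRF read-out (665/615 nm) of phospho-ERK1/2 Thr202/Tyr204 in lysates from Miapaca2 cells exposed for 2 h to 3-fold compound dilutions at 0.5% final DMSO. Controls: lysis buffer without cells and DMSO-treated cells; IC50 from four-parameter logistic fit.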

Miapaca2 3D spheroids = assay: Assay of cell proliferation on Miapaca2 3D spheroids; type: cell-based; conditions: CellTiter-Glo 3D, 5 days treatment
Experimental: Example 4 Assay of Cell Proliferation on Miapaca2 3D Spheroids
1. Reagents and Materials • CellTiter-Glo® 3D Cell Viability Assay Kit: Promega, Cat #G9683; • CellCarrier Spheroid ULA 96-well plate: Corning, Cat #4515; • Instrument: Envision, Perkinelmer; • Cell line: Miapaca2, ATCC, Cat #CRL-1420.
2. Preparation of Reaction Solutions • The test compound was dissolved in DMSO and diluted with DMSO to 3000.0 μM, and the compound was further 3-fold diluted with DMSO to: 1000.0, 333.3, 111.1, 37.0, 12.3, 4.1, and 1.4 μM. Then 2 μL of the compound at different dilution concentrations was added to 198 μL of a 1640 medium to prepare a 10× test compound, wherein DMSO was at the concentration of 1% (DMSO was at the final concentration of 0.1%).
3. Experimental Methods • Day0: Digest cells and count cell numbers. Miapaca2 cells were inoculated into a spheroid ULA 96-well plate at a density of 300 cells/well at 100 μL/well and cultured in a cell incubator at 5% CO2 and 37° C. • Day2: The cell spheroids formed at day2. Add 10 μL of 10× test compounds to the 96-well plate. To the cell positive control well was added 10 μL of 1% DMSO 1640 medium. Incubate the cell spheroids in a cell incubator at 5% CO2 and 37° C. for additional 5 days. • Cell viability assay: Add 50 μL of CellTiter-Glo reagent to each well, place the plate in a microplate shaker, and lysis under shaking at 900 rpm at room temperature for 5 minutes. Then incubate the plate at room temperature in the dark for 30 minutes. • The luminescene of each well was detected on Envision2104.
Cell Survial %=(Lum(d7 treatment)−Lum(d2 cell))/(Lum(d7 cell)−Lum(d2 cell))×100
Wherein: • Lum(d7 treatment) refers to the luminescene of the test compound treated cells on day7; • Lum(d2 cell) refers to the luminescene of the 0.1% DMSO treated Miapaca2 cells on day2; • Lum(d7 cell) refers to the luminescene of the 0.1% DMSO treated Miapaca2 cells on day7. • IC50 values were calculated following formula 205: y=A+((B−A)/(1+((C/X)^D))), by using the XL-Fit 5.0 software.

[3] = Homo sapiens, MIA PaCa-2, 120 h

| Structure (SMILES) | IC50 [1] [nM] | IC50 ([2]; Homo sapiens, MIA PaCa-2, 2 h) [nM] | IC50 (Miapaca2 3D spheroids; [3]) [nM] | IC50 ([2]; 2 hours) [nM] | IC50 (Miapaca2 3D spheroids) [nM] |
| --- | --- | --- | --- | --- | --- |
| CNC(=O)C#Cc1ccc2c(c1)[C@@H](N)C1(CCN(c3cnc(Sc4cccnc4C(F)(F)F)c(N)n3)CC1)C2 [Compound 236] | 1.3 | 3 | 1 |  |  |
| C#Cc1ccc2c(c1)[C@@H](N)C1(CCN(c3cc(=O)n(-c4ccc(C#N)c(Cl)c4Cl)c(C)n3)CC1)C2 (atropisomer, axis not shown) [Compound 193] | 1 |  |  | 24 | 90 |
| C#Cc1ccc2c(c1)[C@@H](N)C1(CCN(c3cc(=O)n(-c4ccc(F)c(OC)c4Cl)c(C)n3)CC1)C2 (atropisomer, axis not shown) [Compound 161] | 1 |  |  | 13 | 8 |
| CC#Cc1ccc2c(c1)[C@@H](N)C1(CCN(c3cc(=O)n(-c4cccc(OC)c4Cl)c(C)n3)CC1)C2 [Compound 206] | 3 | 69 | 78 |  |  |
| CNC(=O)C#Cc1ccc2c(c1)[C@@H](N)C1(CCN(c3cnc(Sc4cccnc4C(F)(F)F)cn3)CC1)C2 [Compound 242] | 0.7 | 13 | 2 |  |  |
| C#Cc1ccc2c(c1)[C@@H](N)C1(CCN(c3ncc(Sc4ccnc(N)c4Cl)n4nccc34)CC1)C2 [Compound 156] | 6 | 10 | 31 |  |  |
| Cc1c(N2CCC3(CC2)Cc2ccc(C#CC(=O)N(C)C)cc2[C@H]3N)nc(C)n(-c2cccc(Cl)c2Cl)c1=O [Compound 195] | 1 | 11 | 30 |  |  |
| CC#Cc1ccc2c(c1)[C@@H](N)C1(CCN(c3nc(C)n(-c4cccc(Cl)c4Cl)c(=O)c3F)CC1)C2 [Compound 170] | 9 | 143 | 162 |  |  |
| COCC#Cc1cc(F)c2c(c1)[C@@H](N)C1(CCN(c3nc(C)n(-c4cccc(Cl)c4Cl)c(=O)c3C)CC1)C2 [Compound 160] | 13 | 56 | 41 |  |  |

Second part, led by results:

| IC50 [1] [nM] | IC50 ([2]; Homo sapiens, MIA PaCa-2, 2 h) [nM] | IC50 (Miapaca2 3D spheroids; [3]) [nM] | IC50 ([2]; 2 hours) [nM] | Structure (SMILES) | IC50 (Miapaca2 3D spheroids) [nM] |
| --- | --- | --- | --- | --- | --- |
| 1 | 24 | 29 |  | CNC(=O)C#Cc1ccc2c(c1)[C@@H](N)C1(CCN(c3cnc(N4CCCc5ncccc54)cn3)CC1)C2 [Compound 251] |  |
| 1 | 4 | 2 |  | Cc1nc(Sc2ccnc(N)c2Cl)cnc1N1CCC2(CC1)Cc1ccc(C#CC(N)=O)cc1[C@H]2N [Compound 271] |  |
| 5 | 34 | 16 |  | CCNC(=O)C#Cc1ccc2c(c1)[C@@H](N)C1(CCN(c3ncc(Sc4ccnc(N)c4Cl)nc3C#N)CC1)C2 [Compound 278] |  |
| 0.3 | 2 | 0.7 |  | Nc1nccc(Sc2cnc(N3CCC4(CC3)Cc3ccc(C#CC(=O)NC5CC5)cc3[C@H]4N)cn2)c1Cl [Compound 296] |  |
| 1 | 13 | 16 |  | COC(=O)C#Cc1ccc2c(c1)[C@@H](N)C1(CCN(c3cnc(Sc4ccnc(N)c4Cl)cn3)CC1)C2 [Compound 300] |  |
| 1 | 10 | 2 |  | CNC(=O)C#Cc1ccc2c(c1)[C@@H](N)C1(CCN(c3cnc(Sc4cc(N)nc(Cl)c4Cl)c(N)n3)CC1)C2 [Compound 253] |  |
| 0.9 | 6 | 1 |  | CNC(=O)C#Cc1ccc2c(c1)[C@@H](N)C1(CCN(c3cnc(Sc4ccnc(N)c4Cl)cn3)CC1)O2 [Compound 292] |  |
| 1 | 3 | 1 |  | C#Cc1ccc2c(c1)[C@@H](N)C1(CCN(c3cnc(Sc4ccnc(N)c4Cl)cn3)CC1)C2 [Compound 252] |  |
| 1 | 72 | 14 |  | CNC(=O)C#Cc1ccc2c(c1)[C@@H](N)C1(CCN(c3ncc(Sc4ccnc(N)c4Cl)nn3)CC1)C2 [Compound 250] |  |
|  |  | 17 | 63 | C#Cc1ccc2c(c1)[C@@H](N)C1(CCN(c3cc(=O)n(-c4cccc(C#N)c4Cl)c(C)n3)CC1)C2 [Compound 268] |  |
| 1 | 3 | 2 |  | C#Cc1ccc2c(c1)[C@@H](N)C1(CCN(c3nc(N)c(Sc4ccnc(N)c4Cl)c(=O)n3C)CC1)C2 [Compound 282] |  |
